Assay results published in US20250115558A1, “PYRIDAZINE DERIVATIVES AND RELATED USES” (NodThera Limited, priority 2023, published 2025).

Key:
THP-1 = THP-1 IC50 assay; assay type: cell-based; conditions: Homo sapiens; THP-1 cells
[1] = tested on: IL-1β release upon NLRP3 activation in peripheral blood mononuclear cells (PBMC); assay: PBMC IC50 Determination Assay; assay type: cell-based; conditions: Homo sapiens; inhibition of IL-1β release; LPS-primed PBMC stimulated with ATP or nigericin
Summary of the method: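 Human PBMC from buffy coats primed 3 h with LPS (1 μg/mL in protocol B), then compound for 30 min, then ATP (5 mM) or nigericin (10 μM; protocol A only) for 1 h. IL-1β released into medium measured by ELISA at 450 nm (protocol A) or HTRF at […] (protocol B).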

Row | IC50 (THP-1) | Compound | IC50 [1]
1 | 1 to 3 µM | Cc1cc(Cl)cc(O)c1-c1ccc(CN(C)[C@H]2CC(=O)N(C)C2)nn1 [Compound 91, (4S)-4-({[6-(4-Chloro-2-hydroxy-6-methylphenyl)pyridazin-3-yl]methyl}(methyl)amino)-1-methylpyrrolidin-2-one] | 1 to 3 µM
2 | 3 to 10 µM | Cc1cc(C(F)(F)F)cc(O)c1-c1ccc(CNCc2cnccn2)nn1 [Compound 92, 3-Methyl-2-(6-(((pyrazin-2-ylmethyl)amino)methyl)pyridazin-3-yl)-5-(trifluoromethyl)phenol] | 1 to 3 µM
3 | 1 to 3 µM | CNCc1ccc(-c2c(C)cc(C(F)(F)F)cc2O)nn1 [Compound 93] | 1 to 3 µM
4 | 1 to 3 µM | Cc1cc(C(F)(F)F)cc(O)c1-c1ccc(CN(C)C)nn1 [Compound 94] | 1 to 3 µM
5 | < 0.5 µM | Cc1cc(C(F)(F)F)cc(O)c1-c1ccc(CNCC(F)(F)F)nn1 [Compound 95] | < 0.5 µM
6 | 0.5 to 1 µM | Cc1cc(C(F)(F)F)cc(O)c1-c1ccc(CNCC(F)F)nn1 [Compound 96] | < 0.5 µM
7 | 1 to 3 µM | Cc1cc(C(F)(F)F)cc(O)c1-c1ccc(CNCC2CC2)nn1 [Compound 97] | 0.5 to 1 µM
8 | 0.5 to 1 µM | CCNCc1ccc(-c2c(C)cc(C(F)(F)F)cc2O)nn1 [Compound 98] | < 0.5 µM
9 | 0.5 to 1 µM | Cc1cc(C(F)(F)F)cc(O)c1-c1ccc(CNC(C)C)nn1 [Compound 99] | < 0.5 µM
10 | 1 to 3 µM | Cc1cc(C(F)(F)F)cc(O)c1-c1ccc(CNC2CCCCC2)nn1 [Compound 100] | 1 to 3 µM
11 | 0.5 to 1 µM | Cc1cc(C(F)(F)F)cc(O)c1-c1ccc(CNC2CCCC2)nn1 [Compound 101] | < 0.5 µM
12 | 1 to 3 µM | Cc1cc(C(F)(F)F)cc(O)c1-c1ccc(CNC2CCCOC2)nn1 (centres unmarked) [Compound 102] | 0.5 to 1 µM
13 | < 0.5 µM | Cc1cc(C(F)(F)F)cc(O)c1-c1ccc(CNC2CCOC2)nn1 (centres unmarked) [Compound 103] | < 0.5 µM
14 | 1 to 3 µM | Cc1cc(C(F)(F)F)cc(O)c1-c1ccc(CNCC2COC2)nn1 [Compound 104] | 1 to 3 µM
15 | 3 to 10 µM | Cc1cc(C(F)(F)F)cc(O)c1-c1ccc(CNCC2CCOC2)nn1 (centres unmarked) [Compound 105] | 1 to 3 µM
16 | 3 to 10 µM | Cc1cc(C(F)(F)F)cc(O)c1-c1ccc(CNCC2CCCO2)nn1 (centres unmarked) [Compound 106] | 1 to 3 µM
17 | 3 to 10 µM | Cc1cc(C(F)(F)F)cc(O)c1-c1ccc(CNCC2CCCCO2)nn1 (centres unmarked) [Compound 107] | 3 to 10 µM
18 | 3 to 10 µM | Cc1cc(C(F)(F)F)cc(O)c1-c1ccc(CNCC2CCCOC2)nn1 (centres unmarked) [Compound 108] | 3 to 10 µM
19 | 3 to 10 µM | Cc1cc(C(F)(F)F)cc(O)c1-c1ccc(CNCC2CCOCC2)nn1 [Compound 109] | 3 to 10 µM
20 | 1 to 3 µM | Cc1cc(C(F)(F)F)cc(O)c1-c1ccc(CNC2CCN(C)CC2)nn1 [Compound 110] | 1 to 3 µM

Row | IC50 (THP-1) | Compound | IC50 [1]
21 | < 0.5 µM | Cc1cc(C(F)(F)F)cc(O)c1-c1ccc(CNC2CCC(=O)N(C)C2)nn1 (centres unmarked) [Compound 111] | < 0.5 µM
22 | 1 to 3 µM | Cc1cc(C(F)(F)F)cc(O)c1-c1ccc(CNC2CCN(C)C(=O)C2)nn1 (centres unmarked) [Compound 112] | 0.5 to 1 µM
23 | 1 to 3 µM | Cc1cc(C(F)(F)F)cc(O)c1-c1ccc(CNC2CCN(C)C2=O)nn1 (centres unmarked) [Compound 113] | 0.5 to 1 µM
24 | 0.5 to 1 µM | Cc1cc(C(F)(F)F)cc(O)c1-c1ccc(CNC2CC(=O)N(C)C2=O)nn1 (centres unmarked) [Compound 114] | < 0.5 µM
25 | 1 to 3 µM | COCCNCc1ccc(-c2c(C)cc(C(F)(F)F)cc2O)nn1 [Compound 115] | 1 to 3 µM
26 | 3 to 10 µM | Cc1cc(C(F)(F)F)cc(O)c1-c1ccc(CNCCN(C)C)nn1 [Compound 116] | 3 to 10 µM
27 | 1 to 3 µM | Cc1cc(C(F)(F)F)cc(O)c1-c1ccc(CNCC(C)(C)O)nn1 [Compound 117] | 0.5 to 1 µM
28 | 3 to 10 µM | Cc1cc(C(F)(F)F)cc(O)c1-c1ccc(CNCCC(C)(C)O)nn1 [Compound 118] | 1 to 3 µM
29 | 0.5 to 1 µM | Cc1cc(C(F)(F)F)cc(O)c1-c1ccc(Cn2ccccc2=N)nn1 [Compound 119] | 0.5 to 1 µM
30 | 3 to 10 µM | Cc1cc(C(F)(F)F)cc(O)c1-c1ccc(Cn2ccc(=N)nc2)nn1 [Compound 120] | ≥ 10 µM
31 | 3 to 10 µM | Cc1cc(C(F)(F)F)cc(O)c1-c1ccc(Cn2ccc(=N)cn2)nn1 [Compound 121] | ≥ 10 µM
32 | 0.5 to 1 µM | Cc1cc(C(F)(F)F)cc(O)c1-c1ccc(CNc2ccn(C)n2)nn1 [Compound 122] | < 0.5 µM
33 | 0.5 to 1 µM | Cc1cc(C(F)(F)F)cc(O)c1-c1ccc(Cn2ccn(C)c2=N)nn1 [Compound 123] | 1 to 3 µM
34 | < 0.5 µM | Cc1cc(C(F)(F)F)cc(O)c1-c1ccc(CNc2cnoc2)nn1 [Compound 124] | < 0.5 µM
35 | 1 to 3 µM | Cc1cn(Cc2ccc(-c3c(C)cc(C(F)(F)F)cc3O)nn2)c(=N)s1 [Compound 125] | 1 to 3 µM
36 | 1 to 3 µM | Cc1cc(C(F)(F)F)cc(O)c1-c1ccc(CNCc2ccnn2C)nn1 [Compound 126] | 1 to 3 µM
37 | 1 to 3 µM | Cc1cc(C(F)(F)F)cc(O)c1-c1ccc(CNCc2ccn(C)n2)nn1 [Compound 127] | 0.5 to 1 µM
38 | 1 to 3 µM | Cc1cc(C(F)(F)F)cc(O)c1-c1ccc(CNCc2cnn(C)c2)nn1 [Compound 128] | 1 to 3 µM
39 | 1 to 3 µM | Cc1cc(C(F)(F)F)cc(O)c1-c1ccc(CN(C)C2CCOCC2)nn1 [Compound 129] | 1 to 3 µM
40 | 0.5 to 1 µM | Cc1cc(C(F)(F)F)cc(O)c1-c1ccc(CN2CCOCC2)nn1 [Compound 130] | 0.5 to 1 µM

Row | IC50 (THP-1) | Compound | IC50 [1]
41 | 3 to 10 µM | Cc1cc(C(F)(F)F)cc(O)c1-c1ccc(CN2CCN(C)CC2)nn1 [Compound 131] | 1 to 3 µM
42 | 1 to 3 µM | Cc1cc(C(F)(F)F)cc(O)c1-c1ccc(CN2CCN(C)C(=O)C2)nn1 [Compound 132] | 1 to 3 µM
43 | 0.5 to 1 µM | Cc1cc(C(F)(F)F)cc(O)c1-c1ccc(CN2CCCC2)nn1 [Compound 133] | < 0.5 µM
44 | < 0.5 µM | Cc1cc(C(F)(F)F)cc(O)c1-c1ccc(CN2CCCC2=O)nn1 [Compound 134] | < 0.5 µM
45 | < 0.5 µM | Cc1cc(C(F)(F)F)cc(O)c1-c1ccc(CN2CCCCC2)nn1 [Compound 135] | < 0.5 µM
46 | 0.5 to 1 µM | Cc1cc(C(F)(F)F)cc(O)c1-c1ccc(CNC2CCSCC2)nn1 [Compound 136] | 0.5 to 1 µM
47 | 1 to 3 µM | Cc1cc(C(F)(F)F)cc(O)c1-c1ccc(CNC2CCS(=O)(=O)CC2)nn1 [Compound 137] | 1 to 3 µM
48 | 1 to 3 µM | Cc1cc(C(F)(F)F)cc(O)c1-c1ccc(CNCc2ccccc2)nn1 [Compound 138] | 0.5 to 1 µM
49 | 1 to 3 µM | Cc1cc(C(F)(F)F)cc(O)c1-c1ccc(CNC2CCOC(C)C2)nn1 (centres unmarked) [Compound 139] | 0.5 to 1 µM
50 | 0.5 to 1 µM | COC1CCC(NCc2ccc(-c3c(C)cc(C(F)(F)F)cc3O)nn2)CC1 (centres unmarked) [Compound 140] | < 0.5 µM
51 | 1 to 3 µM | Cc1cc(C(F)(F)F)cc(O)c1-c1ccc(CNCc2cccs2)nn1 [Compound 141] | < 0.5 µM
52 | 0.5 to 1 µM | CC(=O)N1CCC(NCc2ccc(-c3c(C)cc(C(F)(F)F)cc3O)nn2)CC1 [Compound 142] | < 0.5 µM
53 | 3 to 10 µM | Cc1cc(C(F)(F)F)cc(O)c1-c1ccc(CNCCN2CCOCC2)nn1 [Compound 144] | 1 to 3 µM
54 | 1 to 3 µM | Cc1cc(C(F)(F)F)cc(O)c1-c1ccc(C[n+]2cccc(N)c2)nn1 [Compound 145] | 3 to 10 µM
55 | 0.5 to 1 µM | Cc1cc(C(F)(F)F)cc(O)c1-c1ccc(CNc2cnccn2)nn1 [Compound 146] | 0.5 to 1 µM
56 | 1 to 3 µM | Cc1cc(NCc2ccc(-c3c(C)cc(C(F)(F)F)cc3O)nn2)on1 [Compound 149] | 1 to 3 µM
57 | < 0.5 µM | Cc1cc(C(F)(F)F)cc(O)c1-c1ccc(CNc2cnsc2)nn1 [Compound 150] | < 0.5 µM
58 | < 0.5 µM | Cc1cc(C(F)(F)F)cc(O)c1-c1ccc(CN2CCCCC2=O)nn1 [Compound 151] | < 0.5 µM
59 | 1 to 3 µM | Cc1cc(C(F)(F)F)cc(O)c1-c1ccc(CN[C@H]2CC[C@](C)(O)CC2)nn1 [Compound 152] | 1 to 3 µM
60 | 1 to 3 µM | Cc1cc(C(F)(F)F)cc(O)c1-c1ccc(CN[C@H]2CC[C@@](C)(O)CC2)nn1 [Compound 153] | 1 to 3 µM

Row | Compound | IC50 (THP-1) | IC50 [1]
61 | Cc1cc(C(F)(F)F)cc(O)c1-c1ccc(CNC2CN3CCC2CC3)nn1 (centres unmarked) [Compound 154] | ≥ 10 µM | ≥ 10 µM
